Laboratory results reported in ChEMBL document CHEMBL4706520, “Development of disulfide-derived fructose-1,6-bisphosphatase (FBPase) covalent inhibitors for the treatment of type 2 diabetes” (Eur J Med Chem, 2020).
Each block holds one compound with its values, some of them ahead of it. Calls of active or inactive are those of the source. The calls are words filed in the database; no cut-off is given here.

How the values were obtained:
[1] = target: T1, Fructose-1,6-bisphosphatase 1 (Homo sapiens) (UniProt P09467); test: Inhibition of wild-type full-length human liver FBPase expressed in Escherichia coli BL21 (DE3) using FBP as substrate at 10 uM by malachite green dye-based assay; format: single protein
T1 sequence (whole entry): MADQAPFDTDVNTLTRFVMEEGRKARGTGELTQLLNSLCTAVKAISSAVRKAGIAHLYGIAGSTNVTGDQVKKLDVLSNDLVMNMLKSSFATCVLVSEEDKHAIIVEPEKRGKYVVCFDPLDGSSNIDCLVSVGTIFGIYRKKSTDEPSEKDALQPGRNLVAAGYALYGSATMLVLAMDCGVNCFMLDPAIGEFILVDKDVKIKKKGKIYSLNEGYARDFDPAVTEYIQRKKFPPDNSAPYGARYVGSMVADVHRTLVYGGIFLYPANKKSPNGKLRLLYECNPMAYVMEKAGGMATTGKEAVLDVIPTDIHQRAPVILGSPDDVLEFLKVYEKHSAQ

[2] = system: c1csc(SSc2nccs2)n1; test: Covalent inhibition of FBPase C179S mutant (unknown origin) assessed as Vmax measured upto 45 mins by UV-visible spectrometry analysis; conditions: Homo sapiens; time min <=45
[3] = system: c1csc(SSc2nccs2)n1; test: Covalent inhibition of FBPase N125A mutant (unknown origin) assessed as Vmax measured upto 45 mins by UV-visible spectrometry analysis; conditions: Homo sapiens; time min <=45
[4] = system: c1csc(SSc2nccs2)n1; test: Covalent inhibition of FBPase C116S mutant (unknown origin) assessed as Vmax measured upto 45 mins by UV-visible spectrometry analysis; conditions: Homo sapiens
[5] = system: c1csc(SSc2nccs2)n1; test: Covalent inhibition of FBPase Y258A mutant (unknown origin) assessed as Vmax measured upto 45 mins by UV-visible spectrometry analysis; conditions: Homo sapiens; time min <=45
[6] = system: c1csc(SSc2nccs2)n1; test: Covalent inhibition of FBPase S124A mutant (unknown origin) assessed as Vmax measured upto 45 mins by UV-visible spectrometry analysis; conditions: Homo sapiens; time min <=45
[7] = system: c1csc(SSc2nccs2)n1; test: Covalent inhibition of FBPase D127A mutant (unknown origin) assessed as Vmax measured upto 45 mins by UV-visible spectrometry analysis; conditions: Homo sapiens; time min <=45
[8] = system: c1csc(SSc2nccs2)n1; test: Covalent inhibition of FBPase R254A mutant (unknown origin) assessed as Vmax measured upto 45 mins by UV-visible spectrometry analysis; conditions: Homo sapiens; time min <=45
[9] = system: c1csc(SSc2nccs2)n1; test: Covalent inhibition of FBPase C92S mutant (unknown origin) assessed as Vmax measured upto 45 mins by UV-visible spectrometry analysis; conditions: Homo sapiens
[10] = system: c1csc(SSc2nccs2)n1; test: Covalent inhibition of FBPase C281S mutant (unknown origin) assessed as Vmax measured upto 45 mins by UV-visible spectrometry analysis; conditions: Homo sapiens; time min <=45
[11] = system: c1csc(SSc2nccs2)n1; test: Covalent inhibition of FBPase C128S mutant (unknown origin) assessed as Vmax measured upto 45 mins by UV-visible spectrometry analysis; conditions: Homo sapiens; time min <=45
[12] = system: c1csc(SSc2nccs2)n1; test: Covalent inhibition of FBPase R243A mutant (unknown origin) assessed as Vmax measured upto 45 mins by UV-visible spectrometry analysis; conditions: Homo sapiens; time min <=45
[13] = system: c1csc(SSc2nccs2)n1; test: Covalent inhibition of FBPase C183S (unknown origin) assessed as Vmax measured upto 45 mins; conditions: Homo sapiens; time min <=45
[14] = system: c1csc(SSc2nccs2)n1; test: Covalent inhibition of FBPase C183S (unknown origin) upto 45 mins; conditions: Homo sapiens; time min <=45
[15] = system: c1csc(SSc2nccs2)n1; test: Covalent inhibition of FBPase C38S mutant (unknown origin) assessed as Vmax measured at 45 mins by UV-visible spectrometry analysis; conditions: Homo sapiens
[16] = system: Hepatocyte; test: Inhibition of gluconeogenesis in C57BLKS mouse primary hepatocytes assessed as inhibition of glucose output measured after 6 hrs; format: functional, cell-based; conditions: dose 0.5-100 µmol/L
[17] = species: Homo sapiens; test: Selectivity index, ratio of IC50 for FBPase C38S mutant IC50 for FBPase WT (unknown origin)
[18] = species: Homo sapiens; test: Selectivity index, ratio of IC50 for FBPase Y258A mutant IC50 for FBPase WT (unknown origin)
[19] = species: Homo sapiens; test: Selectivity index, ratio of IC50 for FBPase R254A mutant IC50 for FBPase WT (unknown origin)
[20] = species: Homo sapiens; test: Selectivity index, ratio of IC50 for FBPase N125A mutant IC50 for FBPase WT (unknown origin)
[21] = species: Homo sapiens; test: Selectivity index, ratio of IC50 for FBPase R243A mutant IC50 for FBPase WT (unknown origin)
[22] = species: Homo sapiens; test: Selectivity index, ratio of IC50 for FBPase C116S mutant IC50 for FBPase WT (unknown origin)
[23] = system: Mus musculus; test: Suppression of blood glucose concentration in 12 hrs fasted ICR mouse model at 25 mg/kg, ip measured upto 120 mins after oral administration of glucose at 2 g/kg for 60 min by oral glucose tolerance test; format: functional, organism-based
[24] = system: Mus musculus; test: Hypoglycemic activity in 2 hrs fasted db/db mouse model assessed as reduction in blood glucose AUC at 12.5 mg/kg, ip measured upto 120 mins after oral administration of glucose at 2 g/kg for 60 min by oral glucose tolerance test; format: functional, organism-based
[25] = system: Mus musculus; test: Suppression of blood glucose concentration in 12 hrs fasted db/db mouse model at 12.5 mg/kg, ip measured upto 120 mins after oral administration of glucose at 2 g/kg for 60 min by oral glucose tolerance test; format: functional, organism-based
[26] = system: Mus musculus; test: Suppression of blood glucose concentration in 12 hrs fasted ICR mouse model at 12.5 mg/kg, ip measured upto 120 mins after oral administration of glucose at 2 g/kg for 60 min by oral glucose tolerance test; format: functional, organism-based
[27] = species: Homo sapiens; test: Selectivity index, ratio of IC50 for FBPase WT (unknown origin) to IC50 for FBPase […] mutant IC50 for FBPase WT (unknown origin)
[28] = species: Homo sapiens; test: Selectivity index, ratio of IC50 for FBPase D127A mutant IC50 for FBPase WT (unknown origin)
[29] = target: T1, Fructose-1,6-bisphosphatase 1 (Homo sapiens); test: Covalent binding affinity to FBPase WT (unknown origin) assessed as maximum peak absorption measured upto 45 mins by UV-visible spectroscopy (reference value: 283 nm); conditions: time min <=45
[30] = species: Homo sapiens; test: Selectivity index, ratio of IC50 for FBPase C128S mutant IC50 for FBPase WT (unknown origin)
[31] = species: Homo sapiens; test: Selectivity index, ratio of IC50 for FBPase C92S mutant IC50 for FBPase WT (unknown origin)
[32] = species: Homo sapiens; test: Selectivity index, ratio of IC50 for FBPase C179S mutant IC50 for FBPase WT (unknown origin)
[33] = system: Mus musculus; test: Hypoglycemic activity in 2 hrs fasted db/db mouse model assessed as reduction in blood glucose AUC at 25 mg/kg, ip measured upto 120 mins after oral administration of glucose at 2 g/kg for 60 min by oral glucose tolerance test; format: functional, organism-based
[34] = species: Homo sapiens; test: Selectivity index, ratio of IC50 for FBPase S124A mutant IC50 for FBPase WT (unknown origin)
[35] = species: Homo sapiens; test: Selectivity index, ratio of IC50 for FBPase C183S mutant IC50 for FBPase WT (unknown origin)

Compound: S=C(SSC(=S)N1CCOCC1)N1CCOCC1
inhibition [1]: 26.1%

Compound: CN1CCN(C(=S)SSC(=S)N2CCN(C)CC2)CC1
inhibition [1]: 26.2%

Compound: CCN(CC)C(=S)SC(=S)N(CC)CC
inhibition [1]: 18%

inhibition [1]: 3.22%
Compound: CCN(CC)C(=O)CSC(=S)N(CC)CC

Compound: CC(C)N(C(=S)SSC(=S)N(C(C)C)C(C)C)C(C)C
inhibition [1]: 47.8%

inhibition [1]: 47.6%
Compound: S=C(SSC(=S)n1ncc2ccccc21)n1ncc2ccccc21

inhibition [1]: 9.65%
Compound: Cn1ccnc1SSc1nccn1C

Compound: c1ccc(SSc2ccccc2)cc1
inhibition [1]: 10.4%

Compound: S=C(SSC(=S)N1CCC1)N1CCC1
inhibition [1]: 28.5%

inhibition [1]: 44.7%
Compound: COc1ccc2nc(SSc3nc4ccc(OC)cc4s3)sc2c1

inhibition [1]: 18.4%
Compound: O=[N+]([O-])c1ccc2nc(SSc3nc4ccc([N+](=O)[O-])cc4s3)sc2c1

inhibition [1]: 13.6%
Compound: CCCN(CCC)C(=S)SSC(=S)N(CCC)CCC

Compound: Fructose-1,6-bisphosphatase 1 (Homo sapiens) (from UniProt P09467) UNDEFINED MUTATION
Vmax [2]: 2.3 U/mg
Vmax [3]: 1.5 U/mg
Vmax [4]: 1.6 U/mg
Vmax [5]: 5 U/mg
Vmax [6]: 5 U/mg
Vmax [7]: 1.9 U/mg
Vmax [8]: 3.5 U/mg
Vmax [9]: 1.6 U/mg
Vmax [10]: 3.6 U/mg
Vmax [11]: 2.7 U/mg
Vmax [12]: 2.5 U/mg
Vmax [13]: 3.8 U/mg
Vmax [14]: 0.21 U/mg
Vmax [15]: 2.7 U/mg

Ratio IC50 [17]: 1.1
Ratio IC50 [18]: 11.5
Ratio IC50 [19]: 2.3
Ratio IC50 [20]: > 926
Ratio IC50 [21]: > 1
Ratio IC50 [22]: 0.7
Ratio IC50 [27]: 0.7
Ratio IC50 [28]: 0.7
lambda max [29]: 306 nm
Ratio IC50 [30]: > 1850
Ratio IC50 [31]: 0.5
Ratio IC50 [32]: 0.6
Ratio IC50 [34]: 1.7
Ratio IC50 [35]: 0.8
Compound: c1csc(SSc2nccs2)n1
inhibition [16]: Dose-dependent effect
inhibition [23]: Active
inhibition [24]: Active
inhibition [25]: Active
inhibition [26]: Active
inhibition [33]: Active

inhibition [1]: 50.6%
Compound: c1csc(SSc2cccs2)c1

inhibition [1]: 37.2%
Compound: S=C(SSC(=S)N1CC2CCCCC2C1)N1CC2CCCCC2C1 (centres undefined)

inhibition [1]: 9.87%
Compound: S=C(SSC(=S)N1CCCc2ccccc21)N1CCCc2ccccc21

inhibition [1]: 2.59%
Compound: CCN(CC)C(=O)SSC(=O)N(CC)CC

inhibition [1]: 39.7%
Compound: S=C(SSC(=S)n1c2ccccc2c2ccccc21)n1c2ccccc2c2ccccc21

inhibition [1]: 37.7%
Compound: C[C@@H]1CN(C(=S)SSC(=S)N2C[C@@H](C)O[C@@H](C)C2)C[C@H](C)O1

inhibition [1]: 34.3%
Compound: c1csc(SSC2CCCC2)n1

inhibition [1]: 12.4%
Compound: C1CCC(SSC2CCCCC2)CC1

inhibition [1]: 32.4%
Compound: CN(C(=S)SSC(=S)N(C)c1ccc(-c2ccccc2)cc1)c1ccc(-c2ccccc2)cc1

Compound: O=C(O)C1CCN(C(=S)SSC(=S)N2CCC(C(=O)O)CC2)CC1
inhibition [1]: 47.6%

inhibition [1]: 21.4%
Compound: CCN(CC)C(=S)CSC(=S)N(CC)CC

Compound: S=C(SSC(=S)N1CCc2ccccc2C1)N1CCc2ccccc2C1
inhibition [1]: 38.4%

inhibition [1]: 18%
Compound: Clc1ccc(SSc2ccc(Cl)cc2)cc1

inhibition [1]: 3.09%
Compound: CN(Cc1ccccc1)C(=S)SSC(=S)N(C)Cc1ccccc1

inhibition [1]: 39.9%
Compound: S=C(SSC(=S)N1CCc2ccccc21)N1CCc2ccccc21

inhibition [1]: 12.4%
Compound: CCN(CC)C(=S)SCSC(=S)N(CC)CC

Compound: CN(C(=S)SSC(=S)N(C)c1ccccc1)c1ccccc1
inhibition [1]: 35.7%

inhibition [1]: 29.4%
Compound: Cc1cccn1C(=S)SSC(=S)n1cccc1C
